Assay results taken from ChEMBL document CHEMBL4680314, “Discovery of potent glycogen synthase kinase 3/cholinesterase inhibitors with neuroprotection as potential therapeutic agent for Alzheimer's disease” (Bioorg Med Chem, 2021).
pIC50: −log10 of the molar value. The source made the active and inactive calls. No cut-off for these calls is given here.

Tests used:
[1] = biological target: Glycogen synthase kinase-3 beta (Homo sapiens, UniProt P49841); experiment: Inhibition of GSK3beta (unknown origin) by ATP competitive based analysis
[2] = biological target: Cyclin-dependent kinase 4 (Homo sapiens, UniProt P11802); experiment: Inhibition of CDK4 (unknown origin) by ATP competitive based analysis
[3] = system: BV-2; experiment: Anti-inflammatory activity in mouse BV-2 cells assessed as reduction in LPS-induced IL-1beta production incubated for 1 hr followed by LPS stimulation and measured after 24 hrs by ELISA; assay type: functional, cell-based; conditions: dose 2-8 µM, time 25.0 hrs
[4] = biological target: Glycogen synthase kinase-3 beta (Mus musculus) (UniProt Q9WV60); experiment: Inhibition of GSK3beta in mouse N2a cells overexpressing human tau assessed as tau phosphorylation at Ser396 residue at 0.22 uM incubated for 6 hrs by Western blot analysis (reference value: […] %); assay type: cell-based; parameters: scale not given: the % may be the effect or the level left
[5] = system: BV-2; experiment: Anti-inflammatory activity in mouse BV-2 cells assessed as reduction in LPS-induced IL-1beta expression at 4 uM incubated for 1 hr followed by LPS stimulation and measured after 24 hrs by immunofluorescence based laser confocal microscopy; assay type: functional, cell-based; conditions: time 25.0 hrs
[6] = in vitro; conditions: PAMPA
Description: Effective permeability of compound in PBS/EtOH buffer (7:3) at 25 ug/ml incubated for 18 hrs by PAMPA-BBB assay

[7] = Volume of distribution in Sprague-Dawley rat at 5 mg/kg, iv measured upto 24 hrs by LC-MS/MS analysis; assay type: ADME, organism-based; conditions: in vivo
[8] = Tmax in Sprague-Dawley rat at 10 mg/kg, po measured upto 24 hrs by LC-MS/MS analysis; assay type: ADME, organism-based; conditions: in vivo
[9] = species: Homo sapiens; experiment: Selectivity index, ratio of IC50 for CDK1 (unknown origin) to IC50 for GSK-3 beta (unknown origin) by ATP competitive based analysis
[10] = species: Homo sapiens; experiment: Selectivity index, ratio of IC50 for CDK7 (unknown origin) to IC50 for GSK-3 beta (unknown origin) by ATP competitive based analysis
[11] = Cmax in Sprague-Dawley rat at 5 mg/kg, iv measured upto 24 hrs by LC-MS/MS analysis; assay type: ADME, organism-based; parameters: route intravenous, dose 5 mg/kg, time <=24; conditions: in vivo
[12] = biological target: Mitogen-activated protein kinase 11 (Homo sapiens, UniProt Q15759); experiment: Inhibition of p38MAPK beta (unknown origin) by ATP competitive based analysis
[13] = MRT (0 to t) in Sprague-Dawley rat at 10 mg/kg, po measured upto 24 hrs by LC-MS/MS analysis; assay type: ADME, organism-based; conditions: in vivo
[14] = system: N2a; experiment: Effect on tau protein level in mouse N2a cells overexpressing human tau at 0.074 to 6 uM incubated for 6 hrs by Western blot analysis; assay type: functional, cell-based; conditions: dose 0.074-6 µM
[15] = species: Homo sapiens; experiment: Selectivity index, ratio of IC50 for CDK4 (unknown origin) to IC50 for GSK-3 beta (unknown origin) by ATP competitive based analysis
[16] = species: Homo sapiens; experiment: Selectivity index, ratio of IC50 for p38MAPK delta (unknown origin) to IC50 for GSK-3 beta (unknown origin) by ATP competitive based analysis
[17] = biological target: Glycogen synthase kinase-3 beta (Mus musculus) (UniProt Q9WV60); experiment: Inhibition of GSK3beta in mouse N2a cells overexpressing human tau assessed as reduction in tau phosphorylation at Ser396 residue at 6 uM incubated for 6 hrs by Western blot analysis relative to control; assay type: cell-based
[18] = Half life in Sprague-Dawley rat at 10 mg/kg, po measured upto 24 hrs by LC-MS/MS analysis; assay type: ADME, organism-based; conditions: in vivo
[19] = biological target: Cyclin-dependent kinase 6 (Homo sapiens, UniProt Q00534); experiment: Inhibition of CDK6 (unknown origin) by ATP competitive based analysis
[20] = species: Homo sapiens; experiment: Selectivity index, ratio of IC50 for GSK3alpha (unknown origin) to IC50 for GSK-3 beta (unknown origin) by ATP competitive based analysis
[21] = biological target: Mitogen-activated protein kinase 9 (Homo sapiens, UniProt P45984); experiment: Inhibition of JNK2 (unknown origin) by ATP competitive based analysis
[22] = Ratio of drug level in ICR mouse brain to blood at 15 mg/kg, po measured after 90 mins by LC-MS/MS analysis; assay type: ADME, organism-based; conditions: 1.5 h
[23] = species: Homo sapiens; experiment: Selectivity index, ratio of IC50 for CDK6 (unknown origin) to IC50 for GSK-3 beta (unknown origin) by ATP competitive based analysis
[24] = Tmax in Sprague-Dawley rat at 5 mg/kg, iv measured upto 24 hrs by LC-MS/MS analysis; assay type: ADME, organism-based; conditions: in vivo
[25] = biological target: Cyclin-dependent kinase 9 (Homo sapiens, UniProt P50750); experiment: Inhibition of CDK9 (unknown origin) by ATP competitive based analysis
[26] = Cmax in Sprague-Dawley rat at 10 mg/kg, po measured upto 24 hrs by LC-MS/MS analysis; assay type: ADME, organism-based; parameters: route oral, dose 10 mg/kg, time <=24; conditions: in vivo
[27] = AUC (0 to infinity) in Sprague-Dawley rat at 5 mg/kg, iv by LC-MS/MS analysis; assay type: ADME, organism-based; parameters: route intravenous, dose 5 mg/kg; conditions: in vivo
[28] = biological target: Dual specificity tyrosine-phosphorylation-regulated kinase 1B (Homo sapiens, UniProt Q9Y463); experiment: Inhibition of DYRK1B (unknown origin) by ATP competitive based analysis
[29] = species: Homo sapiens; experiment: Selectivity index, ratio of IC50 for CDK9 (unknown origin) to IC50 for GSK-3 beta (unknown origin) by ATP competitive based analysis
[30] = AUC (0 to infinity) in Sprague-Dawley rat at 10 mg/kg, po by LC-MS/MS analysis; assay type: ADME, organism-based; parameters: route oral, time infinity, dose 10 mg/kg; conditions: in vivo
[31] = biological target: Dual specificity tyrosine-phosphorylation-regulated kinase 1A (Homo sapiens, UniProt Q13627); experiment: Inhibition of DYRK1A (unknown origin) by ATP competitive based analysis
[32] = species: Homo sapiens; experiment: Selectivity index, ratio of IC50 for ERK1 (unknown origin) to IC50 for GSK-3 beta (unknown origin) by ATP competitive based analysis
[33] = Toxicity in ICR mouse assessed as reduction in body weight at 15 mg/kg, po; assay type: organism-based; conditions: in vivo
[34] = system: Mus musculus; experiment: Cognitive enhancing effect in ICR mouse model of scopolamine-induced cognitive dysfunction assessed as reduction in memory impairment by measuring increase in number of virtual platform crossings at 15 mg/kg, po by Morris water maze test; assay type: functional, organism-based
[35] = Half life in Sprague-Dawley rat at 5 mg/kg, iv measured upto 24 hrs by LC-MS/MS analysis; assay type: ADME, organism-based; conditions: in vivo
[36] = biological target: Glycogen synthase kinase-3 beta (Mus musculus, UniProt Q9WV60); experiment: Inhibition of GSK3beta in mouse N2a cells overexpressing human tau assessed as reduction in tau phosphorylation at Ser396 residue incubated for 6 hrs by Western blot analysis; assay type: cell-based
Glycogen synthase kinase-3 beta (Mus musculus, UniProt Q9WV60), sequence (Q9WV60 whole entry): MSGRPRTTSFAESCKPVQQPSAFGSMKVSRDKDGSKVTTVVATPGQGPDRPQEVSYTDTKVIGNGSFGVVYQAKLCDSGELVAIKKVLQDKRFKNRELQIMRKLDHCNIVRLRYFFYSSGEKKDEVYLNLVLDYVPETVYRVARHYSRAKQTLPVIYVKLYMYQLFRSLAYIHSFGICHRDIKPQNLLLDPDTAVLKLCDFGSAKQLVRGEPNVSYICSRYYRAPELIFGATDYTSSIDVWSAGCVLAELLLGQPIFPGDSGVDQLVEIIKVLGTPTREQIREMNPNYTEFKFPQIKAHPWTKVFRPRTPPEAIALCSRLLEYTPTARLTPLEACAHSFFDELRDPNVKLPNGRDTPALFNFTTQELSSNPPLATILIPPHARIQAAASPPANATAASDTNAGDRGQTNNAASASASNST

Glycogen synthase kinase-3 beta (Mus musculus), sequence (Q9WV60 whole entry, looked up): as the sequence (Q9WV60 whole entry) above
Cyclin-dependent kinase 9, sequence (P50750 whole entry): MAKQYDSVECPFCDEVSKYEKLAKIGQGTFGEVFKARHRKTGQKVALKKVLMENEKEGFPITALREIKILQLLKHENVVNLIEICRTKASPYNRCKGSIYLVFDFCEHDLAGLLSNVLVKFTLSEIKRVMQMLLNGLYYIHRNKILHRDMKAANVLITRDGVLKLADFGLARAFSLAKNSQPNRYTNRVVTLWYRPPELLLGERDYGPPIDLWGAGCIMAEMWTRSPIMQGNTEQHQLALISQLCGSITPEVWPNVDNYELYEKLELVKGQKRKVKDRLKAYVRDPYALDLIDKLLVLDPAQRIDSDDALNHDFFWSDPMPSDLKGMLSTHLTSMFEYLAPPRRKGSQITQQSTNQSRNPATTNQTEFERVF
Cyclin-dependent kinase 6, sequence (Q00534 whole entry): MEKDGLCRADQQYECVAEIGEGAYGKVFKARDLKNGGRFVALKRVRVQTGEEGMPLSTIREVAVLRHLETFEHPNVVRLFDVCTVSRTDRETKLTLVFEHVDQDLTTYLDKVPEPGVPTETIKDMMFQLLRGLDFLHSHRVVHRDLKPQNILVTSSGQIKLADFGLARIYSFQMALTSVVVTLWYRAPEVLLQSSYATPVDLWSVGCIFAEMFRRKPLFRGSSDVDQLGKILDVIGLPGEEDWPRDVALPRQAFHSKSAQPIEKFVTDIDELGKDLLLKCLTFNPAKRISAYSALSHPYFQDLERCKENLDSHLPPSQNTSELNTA
Mitogen-activated protein kinase 11, sequence (Q15759 whole entry): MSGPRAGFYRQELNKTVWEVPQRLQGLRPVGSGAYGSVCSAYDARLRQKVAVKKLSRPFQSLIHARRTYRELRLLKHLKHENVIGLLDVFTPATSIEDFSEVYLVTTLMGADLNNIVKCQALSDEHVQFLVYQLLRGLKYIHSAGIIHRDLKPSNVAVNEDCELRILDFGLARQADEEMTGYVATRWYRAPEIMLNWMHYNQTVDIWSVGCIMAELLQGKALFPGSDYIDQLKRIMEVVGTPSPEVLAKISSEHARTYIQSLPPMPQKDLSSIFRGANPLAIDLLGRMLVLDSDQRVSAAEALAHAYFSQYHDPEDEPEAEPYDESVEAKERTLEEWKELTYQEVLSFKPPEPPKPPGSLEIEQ
Mitogen-activated protein kinase 9, sequence (P45984 whole entry): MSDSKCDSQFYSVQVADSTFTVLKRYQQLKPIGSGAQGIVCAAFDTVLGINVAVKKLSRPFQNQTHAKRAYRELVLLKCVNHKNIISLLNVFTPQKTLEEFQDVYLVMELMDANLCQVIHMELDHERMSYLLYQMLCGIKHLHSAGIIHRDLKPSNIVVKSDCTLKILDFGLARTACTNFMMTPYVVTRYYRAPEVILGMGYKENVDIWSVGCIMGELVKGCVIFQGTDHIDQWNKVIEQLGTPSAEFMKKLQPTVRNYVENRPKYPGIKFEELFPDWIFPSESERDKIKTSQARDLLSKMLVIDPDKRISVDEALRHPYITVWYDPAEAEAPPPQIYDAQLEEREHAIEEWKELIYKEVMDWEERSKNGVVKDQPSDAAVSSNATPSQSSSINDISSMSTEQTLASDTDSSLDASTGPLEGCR
Glycogen synthase kinase-3 beta (Homo sapiens, UniProt P49841), sequence (P49841 whole entry): as the sequence (Q9WV60 whole entry) above, with P390T, A392T, T400A, A402T counted along it
Dual specificity tyrosine-phosphorylation-regulated kinase 1B, sequence (Q9Y463 whole entry): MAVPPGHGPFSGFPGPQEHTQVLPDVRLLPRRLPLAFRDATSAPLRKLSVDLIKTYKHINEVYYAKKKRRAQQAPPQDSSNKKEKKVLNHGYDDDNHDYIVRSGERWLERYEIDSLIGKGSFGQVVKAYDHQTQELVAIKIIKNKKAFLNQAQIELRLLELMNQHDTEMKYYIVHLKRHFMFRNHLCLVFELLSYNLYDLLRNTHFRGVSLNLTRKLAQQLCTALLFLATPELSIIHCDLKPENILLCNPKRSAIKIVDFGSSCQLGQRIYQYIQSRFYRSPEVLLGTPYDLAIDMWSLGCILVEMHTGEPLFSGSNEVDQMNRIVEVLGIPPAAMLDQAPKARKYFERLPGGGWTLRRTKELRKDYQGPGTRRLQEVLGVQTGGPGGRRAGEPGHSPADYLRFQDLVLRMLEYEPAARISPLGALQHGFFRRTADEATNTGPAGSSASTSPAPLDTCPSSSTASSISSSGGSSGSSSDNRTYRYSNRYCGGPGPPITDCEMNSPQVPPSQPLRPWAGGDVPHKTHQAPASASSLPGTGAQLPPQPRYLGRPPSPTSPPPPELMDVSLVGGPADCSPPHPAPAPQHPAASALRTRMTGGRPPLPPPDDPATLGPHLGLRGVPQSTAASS
Cyclin-dependent kinase 4, sequence (P11802 whole entry): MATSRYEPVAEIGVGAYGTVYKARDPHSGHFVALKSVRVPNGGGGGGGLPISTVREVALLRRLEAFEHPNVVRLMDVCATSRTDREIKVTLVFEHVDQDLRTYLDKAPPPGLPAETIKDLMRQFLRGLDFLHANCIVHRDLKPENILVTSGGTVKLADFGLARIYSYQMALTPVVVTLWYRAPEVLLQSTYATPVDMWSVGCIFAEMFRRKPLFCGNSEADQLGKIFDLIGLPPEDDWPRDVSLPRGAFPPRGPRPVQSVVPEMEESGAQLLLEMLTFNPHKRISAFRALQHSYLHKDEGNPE

In the case of `NC(=O)c1sc(-c2ccnc(NC(=O)C3CC3)c2)nc1OCCCC1CCN(Cc2ccc(F)cc2)CC1`, the pIC50 [1] was 7.79, the pIC50 [2] was under 6.52 and the Activity [3] was “Dose-dependent effect”. The Activity [4] was 63.3%, the Activity [5] was “Active” and the Papp at 18 h, 25 ug/ml [6] was 8.4 ×10⁻⁶ cm/s. It also gave a Vd [7] of 15.8 L/kg, a Tmax [8] of 4.7 h and a Ratio IC50 [9] of 200. The Ratio IC50 [10] was 200, the Cmax [11] was 1000 ng/mL and the pIC50 [12] was under 6.52. For the same molecule, the MRT last at 24 h [13] was 9.9 h, the Activity [14] was “inactive” and the Ratio IC50 [15] was 200. For the same molecule, the Ratio IC50 [16] was 200, the Imax [17] was 93% and the half-life [18] was 5.8 h. The pIC50 [19] was under 6.52, the Ratio IC50 [20] was 200 and the pIC50 [21] was under 6.52. For the same molecule, the Ratio [22] was 21.6 ng/kg, the Ratio IC50 [23] was 200 and the Tmax [24] was 4.98 min. The pIC50 [25] was 6.97, the Cmax [26] was 132 ng/mL and the AUC(0-inf) [27] was 1980 ng·h/mL. It also gave a pIC50 [28] of 7.42, a Ratio IC50 [29] of 200 and an AUC(0-inf) [30] of 1260 ng·h/mL. The pIC50 [31] was 8.09, the Ratio IC50 [32] was 200 and the Activity [33] was “Non-Toxic”. The Activity [34] was “Active”, the half-life [35] was 4.3 h and the DC50 [36] was 380 nM.
